{"source": "patent US20120283293A1", "about": "“Methods of neuroprotection involving Prostaglandin E2 EP4 (PGE2 EP4) receptor activation” (The Board of Trustees of the Leland Stanford Junior …, priority 2011, published 2012)", "assay_type_in_all_cases": "cell-based, murine", "key": {"[1]": {"system": "IKK phosphorylation in BV-2 cells", "assay": "phospho-IKK quantitative Western in LPS-stimulated BV-2 cells", "conditions": "LPS 100 ng/ml, AE1-329 100 nM", "method": "Nuclear and cytoplasmic fractions of BV-2 cells were prepared at several time points after treatment (0-120 minutes) using the nuclear extract kit from Active Motif (Carlsbad, Calif.). Briefly, cells were washed, collected in ice-cold PBS in the presence of phosphatase inhibitors, and centrifuged at 300×g for 5 min at 4° C. Cell pellets were resuspended in hypotonic buffer, treated with detergent, and centrifuged at 14,000×g for 30 sec at 4° C. After collection of the cytoplasmic fraction, nuclei were solubilized for 30 min in lysis buffer containing protease inhibitors. Lysates were centrifuged at 14,000×g for 30 min at 4° C. and supernatants were collected for NF-κB studies. To prepare whole cell lysates for phospho-Akt and phospho-IKK studies, cells were washed in ice-cold PBS and lysed in 20 mM Tris-HCl, pH 7.5, 150 mM NaCl, 1 mM Na2EDTA, 1 mM EGTA, 1% Triton, 2.5 mM sodium pyrophosphate, 1 mM β-glycerophosphate, 1 mM orthovanadate, 1 μg/ml leupeptin and 1 mM PMSF. […] All protein concentrations were determined using the Bradford protein assay.\nWestern blot analysis. […] Immunoreactivity was detected using either sheep anti-rabbit or sheep anti-mouse HRP-conjugated secondary antibody (Amersham Biosciences, Arlington Heights, Ill.), followed by enhanced chemiluminescence (Pierce). Autoradiographic signals were quantified using NIH Image. […]"}, "BV-2 cells [2]": {"system": "BV-2 cells", "assay": "Griess assay of nitrite production (NOS activity) in LPS-treated BV-2 cells", "method": "Nitric oxide synthase (NOS) activity was measured using the Griess assay to measure nitrite production (Promega, Madison, Wis.). BV-2 cells were plated at 5×10^4 cells/well in 24-well plates, allowed to reach 90% confluence, and incubated +/−LPS (10 ng/ml)+/−AE1-329 (1 nM-1 μM) or vehicle for 24 h. […] cell culture medium and nitrite standards ([…]) were transferred to a 96-well plate and mixed with 50 μl sulphanilamide solution and 50 μl NED solution. After a 10 min incubation at room temperature, absorbance was read at 530 nm on a SpectraMax M5 plate reader (Molecular Devices, Sunnyvale, Calif.). Experiments were repeated in triplicate.\nInflammatory stimuli such as LPS can activate microglia through the CD14/TLR4 receptor complex and induce the expression of pro-inflammatory enzymes and cytokines (Fassbender et al., 2004; Walter et al., 2007). LPS-induced inflammatory responses were tested in the absence and presence of pharmacologic activation of EP4 receptor with the selective EP4 agonist AE1-329. BV-2 cells were treated with LPS (10 ng/ml) in the presence or absence of the selective EP4 agonist AE1-329 (1 μM) for 6 h, and pro-inflammatory gene expression was measured using qPCR (see FIG. 2). […] In FIG. 2D, EP4 regulation of iNOS activity was investigated."}, "BV-2 cells [3]": {"system": "BV-2 cells", "assay": "qPCR of pro-inflammatory gene expression in LPS-stimulated BV-2 cells", "conditions": "LPS 10 ng/ml, 6 h", "method": "Murine microglial-like BV-2 cells were grown in DMEM medium supplemented with 10% heat-inactivated fetal bovine serum (HyClone, Logan, Utah) and 100 units/ml each of penicillin and streptomycin and were maintained at 37° C. in a humidified atmosphere containing 5% CO2. For primary microglial cultures, cerebral cortices were isolated from postnatal day 2 Sprague-Dawley rat pups obtained from Charles River Laboratories International, Inc. (Davis, Calif.). Tissues were minced and incubated in 0.25% trypsin-EDTA, mechanically triturated in DMEM/F-12 with 10% FBS, and plated on poly-L-lysine-coated […]. Cultures were maintained for 14 days with media changes every 4 days. […]\nqPCR was carried out as previously described (Liang et al., 2008). […] The mRNA level for each target gene was quantified by SYBR Green-based qPCR using the QuantiTect SYBR Green PCR kit (Qiagen). […] Quantification was performed using the standard curve method. […]\nInflammatory stimuli such as LPS can activate microglia through the CD14/TLR4 receptor complex and induce the expression of pro-inflammatory enzymes and cytokines (Fassbender et al., 2004; Walter et al., 2007). […] BV-2 cells were treated with LPS (10 ng/ml) in the presence or absence of the selective EP4 agonist AE1-329 (1 μM) for 6 h, and pro-inflammatory gene expression was measured using qPCR (see FIG. 2). […]"}}}
{"smiles": "COCc1ccccc1CC[C@H](O)/C=C/[C@H]1[C@H](O)CC(=O)[C@@H]1SCCCSCC(=O)O", "note": "[AE1-329]", "values": [{"measurement": "LPS-induced phosphorylation of IKK", "setting": "[1]", "value": "attenuated"}, {"measurement": "LPS-induced NO production, dose response", "setting": "BV-2 cells [2]; BV-2 cells, 1, 10, 100 and 1000 nM AE1-329, 24 hours", "value": "dose-dependently reduced NO production"}, {"measurement": "nitrite concentration", "setting": "BV-2 cells [2]; BV-2 cells, LPS 10 ng/ml + 10 nM AE1-329, 24 hours (LPS alone 21.76 μM)", "value": 6.57, "unit": "µM"}, {"measurement": "decrease of LPS-induced NO production (nitrite)", "setting": "BV-2 cells [2]; BV-2 cells, LPS 10 ng/ml, 10 nM AE1-329, 24 hours", "value": 68.9, "unit": "%"}, {"measurement": "LPS-induced mRNA of COX-2, iNOS, gp91phox, TNF-α, IL-1β and IL-6", "setting": "BV-2 cells [3]; AE1-329 1 μM, qPCR", "value": "significantly blunted the induction of these genes"}, {"measurement": "IL-10 mRNA expression", "setting": "BV-2 cells [3]; co-stimulation with AE1-329 1 μM", "value": "significantly induced expression"}]}
